Data: patent publication US20230148214A1, “INDAZOLES AND AZAINDAZOLES AS LRRK2 INHIBITORS” (ESCAPE Bio, Inc., priority 2020, published 2023)

Key:
[1] = biological target: T1, LRRK2 WT (Homo sapiens, UniProt Q5S007); experiment: LRRK2 Kinase Activity Assay (LanthaScreen TR-FRET), wild type; assay type: biochemical; details: recombinant wild type LRRK2, 25 μM ATP, 400 nM LRRKtide, 60 min; class symbols
T1 construct: purchased Life Technologies PR8604B
How it was run: (§1)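 Recombinant wild-type or G2019S LRRK2 incubated with fluorescein-labeled LRRKtide (ERM-based) peptide, ATP and serially diluted compound for 60 min at room temperature.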

[2] = biological target: T2, LRRK2 G2019S (Homo sapiens, UniProt Q5S007, G2019S); experiment: LRRK2 Kinase Activity Assay (LanthaScreen TR-FRET), G2019S; assay type: biochemical; details: recombinant G2019S-LRRK2, 25 μM ATP, 400 nM LRRKtide, 60 min; class symbols
T2 construct: purchased Life Technologies PV4881
T2 sequence (Q5S007 whole entry G2019S): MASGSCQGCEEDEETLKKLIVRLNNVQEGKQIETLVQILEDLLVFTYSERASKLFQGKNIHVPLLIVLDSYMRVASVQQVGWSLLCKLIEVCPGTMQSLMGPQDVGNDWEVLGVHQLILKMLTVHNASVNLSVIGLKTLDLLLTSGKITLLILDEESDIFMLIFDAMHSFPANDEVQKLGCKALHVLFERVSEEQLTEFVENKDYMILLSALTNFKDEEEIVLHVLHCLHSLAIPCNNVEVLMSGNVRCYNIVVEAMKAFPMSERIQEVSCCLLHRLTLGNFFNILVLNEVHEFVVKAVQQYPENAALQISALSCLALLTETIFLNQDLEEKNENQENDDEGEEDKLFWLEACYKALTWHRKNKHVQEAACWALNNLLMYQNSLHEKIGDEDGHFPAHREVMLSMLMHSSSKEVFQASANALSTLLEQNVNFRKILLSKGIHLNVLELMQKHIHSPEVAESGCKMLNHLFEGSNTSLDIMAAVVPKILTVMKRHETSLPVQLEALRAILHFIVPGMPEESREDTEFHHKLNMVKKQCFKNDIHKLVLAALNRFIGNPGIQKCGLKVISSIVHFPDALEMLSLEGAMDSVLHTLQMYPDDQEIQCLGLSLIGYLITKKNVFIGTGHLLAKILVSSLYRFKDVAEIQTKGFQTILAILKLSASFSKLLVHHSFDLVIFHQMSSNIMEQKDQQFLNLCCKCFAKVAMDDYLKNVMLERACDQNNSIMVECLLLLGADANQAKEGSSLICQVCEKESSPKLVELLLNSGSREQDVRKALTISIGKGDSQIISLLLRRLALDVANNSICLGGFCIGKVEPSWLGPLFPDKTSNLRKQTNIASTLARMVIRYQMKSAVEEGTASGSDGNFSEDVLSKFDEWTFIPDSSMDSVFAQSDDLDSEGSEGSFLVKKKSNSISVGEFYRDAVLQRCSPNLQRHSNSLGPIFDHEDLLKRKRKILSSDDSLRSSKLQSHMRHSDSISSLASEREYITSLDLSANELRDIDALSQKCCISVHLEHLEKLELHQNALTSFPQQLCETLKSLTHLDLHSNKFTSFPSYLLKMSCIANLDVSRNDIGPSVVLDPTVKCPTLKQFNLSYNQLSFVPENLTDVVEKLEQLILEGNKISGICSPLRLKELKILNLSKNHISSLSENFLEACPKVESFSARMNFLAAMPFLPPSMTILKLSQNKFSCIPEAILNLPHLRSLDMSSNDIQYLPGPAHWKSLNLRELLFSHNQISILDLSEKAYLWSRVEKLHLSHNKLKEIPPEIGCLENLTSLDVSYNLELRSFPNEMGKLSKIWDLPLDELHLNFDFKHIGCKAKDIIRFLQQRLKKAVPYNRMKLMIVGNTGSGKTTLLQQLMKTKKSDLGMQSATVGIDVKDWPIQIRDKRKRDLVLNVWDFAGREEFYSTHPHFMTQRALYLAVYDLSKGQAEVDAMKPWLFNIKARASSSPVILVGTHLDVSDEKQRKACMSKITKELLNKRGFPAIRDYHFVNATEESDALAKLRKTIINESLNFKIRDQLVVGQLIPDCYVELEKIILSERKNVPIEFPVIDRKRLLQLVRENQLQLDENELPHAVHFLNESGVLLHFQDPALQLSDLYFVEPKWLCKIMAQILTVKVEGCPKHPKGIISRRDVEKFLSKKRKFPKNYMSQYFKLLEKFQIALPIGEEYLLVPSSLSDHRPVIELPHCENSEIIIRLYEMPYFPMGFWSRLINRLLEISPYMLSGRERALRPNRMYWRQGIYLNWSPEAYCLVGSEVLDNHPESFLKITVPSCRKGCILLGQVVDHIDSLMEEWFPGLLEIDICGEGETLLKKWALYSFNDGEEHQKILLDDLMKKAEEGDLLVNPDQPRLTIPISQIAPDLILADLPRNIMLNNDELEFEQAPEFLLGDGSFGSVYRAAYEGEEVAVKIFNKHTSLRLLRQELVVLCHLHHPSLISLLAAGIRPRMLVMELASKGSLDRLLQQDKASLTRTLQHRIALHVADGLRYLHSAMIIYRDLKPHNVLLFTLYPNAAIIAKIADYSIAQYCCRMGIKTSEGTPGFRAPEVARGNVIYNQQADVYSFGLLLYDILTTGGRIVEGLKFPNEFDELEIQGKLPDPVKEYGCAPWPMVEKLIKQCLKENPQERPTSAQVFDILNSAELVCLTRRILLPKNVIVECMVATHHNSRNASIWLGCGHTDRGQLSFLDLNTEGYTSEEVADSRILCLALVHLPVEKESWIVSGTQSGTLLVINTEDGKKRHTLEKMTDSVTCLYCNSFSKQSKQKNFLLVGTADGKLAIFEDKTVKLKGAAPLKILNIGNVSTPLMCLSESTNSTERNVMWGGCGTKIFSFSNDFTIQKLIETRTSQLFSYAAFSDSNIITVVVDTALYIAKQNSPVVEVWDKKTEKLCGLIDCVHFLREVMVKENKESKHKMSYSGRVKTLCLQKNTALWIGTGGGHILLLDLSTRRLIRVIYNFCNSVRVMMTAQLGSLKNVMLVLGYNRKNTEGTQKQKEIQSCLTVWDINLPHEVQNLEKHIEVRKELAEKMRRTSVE
How it was run: as §1

T1 sequence (Q5S007 whole entry): as the sequence (Q5S007 whole entry G2019S) above, with S2019G counted along it

| IC50 [1] [nM] | IC50 [2] [nM] | SMILES |
| --- | --- | --- |
| 100 to 1000 | 100 to 1000 | Cc1c(C#N)ccc2c1CC[C@@H]2Nc1ccc2[nH]nc(I)c2c1 (single isomer, unassigned) [Example 127, enantiomer 1, 1-((3-Iodo-1H-indazol-5-yl)amino)-4-methyl-2,3-dihydro-1H-indene-5-carbonitrile] |
| 100 to 1000 | 100 to 1000 | N#Cc1ccc2c(c1)CC[C@H]2Nc1ccc2[nH]nc(I)c2c1 (single isomer, unassigned) [Example 128, enantiomer 1, 1-((3-Iodo-1H-indazol-5-yl)amino)-2,3-dihydro-1H-indene-5-carbonitrile] |
| 100 to 1000 | < 100 | N#Cc1ccc2c(c1)CC[C@H]2Nc1ccc2[nH]nc(I)c2c1 (single isomer, unassigned) [Example 128, enantiomer 2, 1-((3-Iodo-1H-indazol-5-yl)amino)-2,3-dihydro-1H-indene-5-carbonitrile] |
| 1000 to 10000 | 100 to 1000 | Cc1n[nH]c2ccc(N[C@H]3CCc4c(C#N)cccc43)cc12 (single isomer, unassigned) [Example 129, enantiomer 1, 1-((3-Methyl-1H-indazol-5-yl)amino)-2,3-dihydro-1H-indene-4-carbonitrile] |
| 1000 to 10000 | 100 to 1000 | Cc1n[nH]c2ccc(N[C@H]3CCc4ccc(C#N)cc43)cc12 (single isomer, unassigned) [Example 130, enantiomer 1, 3-((3-Methyl-1H-indazol-5-yl)amino)-2,3-dihydro-1H-indene-5-carbonitrile] |
| 100 to 1000 | < 100 | Cc1n[nH]c2ccc(N[C@H]3CCc4ccc(C#N)cc43)cc12 (single isomer, unassigned) [Example 130, enantiomer 2, 3-((3-Methyl-1H-indazol-5-yl)amino)-2,3-dihydro-1H-indene-5-carbonitrile] |
| < 100 | < 100 | Cc1cc(C#N)cc2c1[C@@H](Nc1ccc3[nH]nc(-c4cnco4)c3c1)CC2 (single isomer, unassigned) [Example 131, enantiomer 1, 7-Methyl-1-((3-(oxazol-5-yl)-1H-indazol-5-yl)amino)-2,3-dihydro-1H-indene-5-carbonitrile] |
| < 100 | < 100 | N#Cc1cc(F)c2c(c1)CC[C@H]2Nc1ccc2[nH]nc(-c3cnco3)c2c1 (single isomer, unassigned) [Example 132, enantiomer 1, 5-((5-Cyano-7-fluoro-2,3-dihydro-1H-inden-1-yl)amino)-3-(oxazol-5-yl)-1H-indazol-2-ium] |
| 1000 to 10000 | 100 to 1000 | N#Cc1ccc2c(n1)CCC[C@H]2Oc1ccc2[nH]nc(C3CC3)c2c1 (single isomer, unassigned) [Example 133, enantiomer 1, 5-((3-Cyclopropyl-1H-indazol-5-yl)oxy)-5,6,7,8-tetrahydroquinoline-2-carbonitrile] |
| 1000 to 10000 | < 100 | N#Cc1ccc2c(n1)CCC[C@H]2Oc1ccc2[nH]nc(C3CC3)c2c1 (single isomer, unassigned) [Example 133, enantiomer 2, 5-((3-Cyclopropyl-1H-indazol-5-yl)oxy)-5,6,7,8-tetrahydroquinoline-2-carbonitrile] |
| 1000 to 10000 | 100 to 1000 | N#Cc1ccc2c(c1)CC[C@@H]2Nc1ccc2[nH]nc(C3CC3)c2c1 (single isomer, unassigned) [Example 134, enantiomer 1, 1-((3-Cyclopropyl-1H-indazol-5-yl)amino)-2,3-dihydro-1H-indene-5-carbonitrile] |
| 1000 to 10000 | 100 to 1000 | N#Cc1ccc2c(c1)CC[C@@H]2Nc1ccc2[nH]nc(C3CC3)c2c1 (single isomer, unassigned) [Example 134, enantiomer 2, 1-((3-Cyclopropyl-1H-indazol-5-yl)amino)-2,3-dihydro-1H-indene-5-carbonitrile] |
| 100 to 1000 | < 100 | N#Cc1ccc2c(n1)CCC[C@@H]2Oc1ccc2[nH]nc(I)c2c1 (single isomer, unassigned) [Example 135, enantiomer 1, 5-((3-Iodo-1H-indazol-5-yl)oxy)-5,6,7,8-tetrahydroquinoline-2-carbonitrile] |
| 100 to 1000 | < 100 | N#Cc1ccc2c(n1)CCC[C@@H]2Oc1ccc2[nH]nc(I)c2c1 (single isomer, unassigned) [Example 135, enantiomer 2, 5-((3-Iodo-1H-indazol-5-yl)oxy)-5,6,7,8-tetrahydroquinoline-2-carbonitrile] |
| 100 to 1000 | < 100 | N#Cc1cnc2c(c1)CCC[C@@H]2Oc1ccc2[nH]nc(C3CC3)c2c1 (single isomer, unassigned) [Example 136, enantiomer 1, 8-((3-Cyclopropyl-1H-indazol-5-yl)oxy)-5,6,7,8-tetrahydroquinoline-3-carbonitrile] |
| < 100 | < 100 | N#Cc1cnc2c(c1)CCC[C@@H]2Oc1ccc2[nH]nc(I)c2c1 (single isomer, unassigned) [Example 137, enantiomer 1, 8-((3-Iodo-1H-indazol-5-yl)oxy)-5,6,7,8-tetrahydroquinoline-3-carbonitrile] |
| 100 to 1000 | < 100 | N#Cc1cnc2c(c1)CCC[C@@H]2Oc1ccc2[nH]nc(I)c2c1 (single isomer, unassigned) [Example 137, enantiomer 2, 8-((3-Iodo-1H-indazol-5-yl)oxy)-5,6,7,8-tetrahydroquinoline-3-carbonitrile] |
| < 100 | < 100 | N#Cc1ccc2c(c1)C(F)(F)C[C@@H]2Nc1ccc2[nH]nc(-c3cnco3)c2c1 (single isomer, unassigned) [Example 138, enantiomer 1, 3,3-Difluoro-1-((3-(oxazol-5-yl)-1H-indazol-5-yl)amino)-2,3-dihydro-1H-indene-5-carbonitrile] |
| 100 to 1000 | < 100 | N#Cc1ccc2c(c1)C(F)(F)C[C@@H]2Nc1ccc2[nH]nc(-c3cnco3)c2c1 (single isomer, unassigned) [Example 138, enantiomer 2, 3,3-Difluoro-1-((3-(oxazol-5-yl)-1H-indazol-5-yl)amino)-2,3-dihydro-1H-indene-5-carbonitrile] |
| 1000 to 10000 | 1000 to 10000 | N#Cc1ccc2c(c1)CCC[C@@H]2Nc1ccc2[nH]nc(CC3CC3)c2c1 (single isomer, unassigned) [Example 139, enantiomer 1, 5-((3-(Cyclopropylmethyl)-1H-indazol-5-yl)amino)-5,6,7,8-tetrahydronaphthalene-2-carbonitrile] |
| 1000 to 10000 | < 100 | N#Cc1ccc2c(c1)CCC[C@@H]2Nc1ccc2[nH]nc(CC3CC3)c2c1 (single isomer, unassigned) [Example 139, enantiomer 2, 5-((3-(Cyclopropylmethyl)-1H-indazol-5-yl)amino)-5,6,7,8-tetrahydronaphthalene-2-carbonitrile] |
| 100 to 1000 | < 100 | N#Cc1ccc2c(c1)C1(CC1)C[C@@H]2Nc1ccc2[nH]nc(-c3cnco3)c2c1 (single isomer, unassigned) [Example 140, enantiomer 1, 3′-((3-(Oxazol-5-yl)-1H-indazol-5-yl)amino)-2′,3′-dihydrospiro[cyclopropane-1,1′-indene]-6′-carbonitrile] |
| 100 to 1000 | < 100 | N#Cc1ccc2c(c1)C1(CC1)C[C@@H]2Nc1ccc2[nH]nc(-c3cnco3)c2c1 (single isomer, unassigned) [Example 140, enantiomer 2, 3′-((3-(Oxazol-5-yl)-1H-indazol-5-yl)amino)-2′,3′-dihydrospiro[cyclopropane-1,1′-indene]-6′-carbonitrile] |
| < 100 | < 100 | N#Cc1cnc2c(c1)CCC[C@@H]2Oc1ccc2[nH]nc(-c3cnn(C(F)F)c3)c2c1 (single isomer, unassigned) [Example 141, enantiomer 1, 8-((3-(1-(Difluoromethyl)-1H-pyrazol-4-yl)-1H-indazol-5-yl)oxy)-5,6,7,8-tetrahydroquinoline-3-carbonitrile] |
| 100 to 1000 | < 100 | N#Cc1cnc2c(c1)CCC[C@@H]2Nc1ccc2[nH]nc(-c3cncs3)c2c1 (single isomer, unassigned) [Example 142, enantiomer 1, 8-((3-(Thiazol-5-yl)-1H-indazol-5-yl)amino)-5,6,7,8-tetrahydroquinoline-3-carbonitrile] |
| 100 to 1000 | < 100 | N#Cc1ccc2c(c1Cl)CCC[C@@H]2Nc1ccc2[nH]nc(-c3cnco3)c2c1 (single isomer, unassigned) [Example 143, enantiomer 1, 1-Chloro-5-((3-(oxazol-5-yl)-1H-indazol-5-yl)amino)-5,6,7,8-tetrahydronaphthalene-2-carbonitrile] |
| 100 to 1000 | 100 to 1000 | N#Cc1cnc2c(c1Cl)CCC[C@@H]2Nc1ccc2[nH]nc(-c3cnco3)c2c1 (single isomer, unassigned) [Example 144, enantiomer 1, 4-Chloro-8-((3-(oxazol-5-yl)-1H-indazol-5-yl)amino)-5,6,7,8-tetrahydroquinoline-3-carbonitrile] |
| < 100 | < 100 | N#Cc1cnc2c(c1Cl)CCC[C@@H]2Nc1ccc2[nH]nc(-c3cnco3)c2c1 (single isomer, unassigned) [Example 144, enantiomer 2, 4-Chloro-8-((3-(oxazol-5-yl)-1H-indazol-5-yl)amino)-5,6,7,8-tetrahydroquinoline-3-carbonitrile] |
| 100 to 1000 | < 100 | N#Cc1cnc2c(c1C(F)(F)F)CCC[C@@H]2Nc1ccc2[nH]nc(-c3cnco3)c2c1 (single isomer, unassigned) [Example 145, enantiomer 1, 8-((3-(Oxazol-5-yl)-1H-indazol-5-yl)amino)-4-(trifluoromethyl)-5,6,7,8-tetrahydroquinoline-3-carbonitrile] |
